# Read-outs that look alike come from different tables or passages of the source.
# Test system: P. aeruginosa
# Experiment: MIC, broth microdilution, CDC/FDA Antibiotic Resistance Isolate Bank (Example 7, Tables 10, 15)
# Assay type: cell-based
# Details: Pseudomonas aeruginosa, read-out: MIC
smiles,measurement,setting,value
"CC(C)(O/N=C(\C(=O)N[C@@H]1C(=O)N2C(C(=O)[O-])=C(C[N+]3(CCNC(=O)c4ccc(O)c(O)c4Cl)CCCC3)CS[C@H]12)c1csc(N)n1)C(=O)O [Cefiderocol, cefiderocol]",MIC,"P. aeruginosa KUB No. 5664, AR Bank # 231",2000 ng/mL
same,MIC,"P. aeruginosa KUB No. 5665, AR Bank # 232",120 ng/mL
same,MIC,"P. aeruginosa KUB No. 5666, AR Bank # 23",120 ng/mL
same,MIC,"P. aeruginosa KUB No. 5667, AR Bank # 234",250 ng/mL
same,MIC,"P. aeruginosa KUB No. 5668, AR Bank # 235",1000 ng/mL
same,MIC,"P. aeruginosa KUB No. 5669, AR Bank # 236",250 ng/mL
same,MIC,"P. aeruginosa KUB No. 5670, AR Bank # 237",250 ng/mL
same,MIC,"P. aeruginosa KUB No. 5671, AR Bank # 238",1000 ng/mL
same,MIC,"P. aeruginosa KUB No. 5672, AR Bank # 239",2000 ng/mL
same,MIC,"P. aeruginosa KUB No. 5673, AR Bank # 240",1000 ng/mL
same,MIC,"P. aeruginosa KUB No. 5674, AR Bank # 241",250 ng/mL
same,MIC,"P. aeruginosa KUB No. 5675, AR Bank # 242",500 ng/mL
same,MIC,"P. aeruginosa KUB No. 5676, AR Bank # 243",500 ng/mL
same,MIC,"P. aeruginosa KUB No. 5677, AR Bank # 244",250 ng/mL
same,MIC,"P. aeruginosa KUB No. 5678, AR Bank # 245",250 ng/mL
same,MIC,"P. aeruginosa KUB No. 5679, AR Bank # 246",4000 ng/mL
same,MIC,"P. aeruginosa KUB No. 5680, AR Bank # 247",120 ng/mL
same,MIC,"P. aeruginosa KUB No. 5681, AR Bank # 248",500 ng/mL
same,MIC,"P. aeruginosa KUB No. 5682, AR Bank # 249",500 ng/mL
same,MIC,"P. aeruginosa KUB No. 5684, AR Bank # 251",120 ng/mL
same,MIC,"P. aeruginosa KUB No. 5685, AR Bank # 252",2000 ng/mL
same,MIC,"P. aeruginosa KUB No. 5686, AR Bank # 253",120 ng/mL
same,MIC,"P. aeruginosa KUB No. 5687, AR Bank # 254",500 ng/mL
same,MIC,"P. aeruginosa KUB No. 5688, AR Bank # 255",250 ng/mL
same,MIC,"P. aeruginosa KUB No. 5689, AR Bank # 256",2000 ng/mL
same,MIC,"P. aeruginosa KUB No. 5690, AR Bank # 257",250 ng/mL
same,MIC,"P. aeruginosa KUB No. 5691, AR Bank # 258",250 ng/mL
same,MIC,"P. aeruginosa KUB No. 5692, AR Bank # 259",120 ng/mL
same,MIC,"P. aeruginosa KUB No. 5693, AR Bank # 260",250 ng/mL
same,MIC,"P. aeruginosa KUB No. 5694, AR Bank # 261",≤ 60 ng/mL
same,MIC,"P. aeruginosa KUB No. 5695, AR Bank # 262",120 ng/mL
same,MIC,"P. aeruginosa KUB No. 5696, AR Bank # 263",120 ng/mL
same,MIC,"P. aeruginosa KUB No. 5697, AR Bank # 264",250 ng/mL
same,MIC,"P. aeruginosa KUB No. 5698, AR Bank # 265",500 ng/mL
same,MIC,"P. aeruginosa KUB No. 5699, AR Bank # 266",500 ng/mL
same,MIC,"P. aeruginosa KUB No. 5700, AR Bank # 267",120 ng/mL
same,MIC,"P. aeruginosa KUB No. 5701, AR Bank # 268",250 ng/mL
same,MIC,"P. aeruginosa KUB No. 5702, AR Bank # 269",1000 ng/mL
same,MIC,"P. aeruginosa KUB No. 5703, AR Bank # 270",250 ng/mL
same,MIC,"P. aeruginosa KUB No. 5704, AR Bank # 271",250 ng/mL
same,MIC,"P. aeruginosa KUB No. 5705, AR Bank # 272",250 ng/mL
same,MIC,"P. aeruginosa KUB No. 5747, AR Bank # 351",250 ng/mL
same,MIC,"P. aeruginosa KUB No. 5748, AR Bank # 352",500 ng/mL
same,MIC,"P. aeruginosa KUB No. 5749, AR Bank # 353",1000 ng/mL
same,MIC,"P. aeruginosa KUB No. 5750, AR Bank # 354",500 ng/mL
same,MIC,"P. aeruginosa KUB No. 5751, AR Bank # 355",250 ng/mL
same,MIC,"P. aeruginosa KUB No. 5752, AR Bank # 356",1000 ng/mL
same,MIC,"P. aeruginosa KUB No. 5753, AR Bank # 357",4000 ng/mL
same,MIC,"P. aeruginosa KUB No. 5754, AR Bank # 358",500 ng/mL
same,MIC,"P. aeruginosa KUB No. 5755, AR Bank # 359",250 ng/mL
same,MIC,"P. aeruginosa KUB No. 5756, AR Bank # 360",250 ng/mL
same,MIC,"P. aeruginosa KUB No. 5785, AR Bank # 439",500 ng/mL
same,MIC,"P. aeruginosa KUB No. 5786, AR Bank # 440",250 ng/mL
same,MIC,"P. aeruginosa KUB No. 5787, AR Bank # 441",1000 ng/mL
same,MIC,"P. aeruginosa KUB No. 5788, AR Bank # 443",1000 ng/mL
same,MIC,"P. aeruginosa KUB No. 5789, AR Bank # 444",500 ng/mL
same,MIC,"P. aeruginosa KUB No. 5790, AR Bank # 445",500 ng/mL
same,MIC,"P. aeruginosa KUB No. 5793, AR Bank # 449",500 ng/mL
same,MIC,"P. aeruginosa KUB No. 5798, AR Bank # 455",250 ng/mL
same,MIC,"P. aeruginosa KUB No. 5799, AR Bank # 456",250 ng/mL
same,MIC,"P. aeruginosa KUB No. 5800, AR Bank # 457",250 ng/mL
same,MIC,"P. aeruginosa KUB No. 5801, AR Bank # 458",2000 ng/mL
same,MIC,"P. aeruginosa KUB No. 5802, AR Bank # 459",120 ng/mL
same,MIC,"P. aeruginosa KUB No. 5804, AR Bank # 862",500 ng/mL
same,MIC,"P. aeruginosa KUB No. 5805, AR Bank # 863",500 ng/mL
same,MIC,"P. aeruginosa KUB No. 5806, AR Bank # 864",120 ng/mL
same,MIC,"P. aeruginosa KUB No. 5813, AR Bank # 508",1 ng/mL
same,MIC,"P. aeruginosa KUB No. 5814, AR Bank # 509",0.5 ng/mL
same,MIC,"P. aeruginosa KUB No. 5815, AR Bank # 510",≤ 0.06 ng/mL
same,MIC,"P. aeruginosa KUB No. 5816, AR Bank # 511",0.25 ng/mL
same,MIC,"P. aeruginosa KUB No. 5817, AR Bank # 512",1 ng/mL
same,MIC,"P. aeruginosa KUB No. 5818, AR Bank # 513",0.25 ng/mL
same,MIC,"P. aeruginosa KUB No. 5819, AR Bank # 514",0.12 ng/mL
same,MIC,"P. aeruginosa KUB No. 5820, AR Bank # 515",1 ng/mL
same,MIC,"P. aeruginosa KUB No. 5821, AR Bank # 516",0.5 ng/mL
same,MIC,"P. aeruginosa KUB No. 5823, AR Bank # 518",0.25 ng/mL
same,MIC,"P. aeruginosa KUB No. 5831, AR Bank # 526",0.12 ng/mL
same,MIC,"P. aeruginosa KUB No. 5832, AR Bank # 527",0.25 ng/mL
same,MIC,"P. aeruginosa KUB No. 5833, AR Bank # 528",0.25 ng/mL
same,MIC,"P. aeruginosa KUB No. 5834, AR Bank # 529",≤ 0.06 ng/mL
